This note sets out measurements from PubChem BioAssay (NCI).

Common to all, as to experiment: DTP human tumour cell line panel, 48 h
Experiment [1] has as its system RXF 393 renal.
Experiment [2] relates to SNB-19 CNS.
The subject of experiment [3] is SW-620 colon.
Experiment [4] has as its system UACC-257 melanoma.
Experiment [5] relates to NCI-H460 lung.
Experiment [6] concerns COLO 205 colon.
Experiment [7] has as its system NCI-H522 lung.
Experiment [8] has as its system SK-MEL-5 melanoma.
Experiment [9] has as its system DU-145 prostate.
The test system of experiment [10] is UO-31 renal.

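A five-concentration, 48-hour dose response in 96-well plates underlies each endpoint, interpolated linearly between surrounding concentrations. TGI denotes the concentration required for complete inhibition of growth.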 Bounds are passed on as bounds.

Take `O=C(O)C(CO)NC(=O)n1c2ccccc2c2ccccc21` (stereo not given): the TGI in [1], in experiment [2], in experiment [3], in [4], in experiment [5] and in experiment [6] was above 100 µM in each case. The TGI in [7] and in experiment [8] was above 100 µM each time.
Consider `COc1ccc2cc(NC(=O)N/N=C\c3ccc(Cl)cc3)ccc2c1`, for which the TGI in experiment [9], in [2], in experiment [3], in experiment [4], in experiment [5] and in [6] was above 100 µM in each case. The TGI in [7] and in experiment [10] was above 100 µM in each case.
Take `CC1(C)OCC2OC3([C@H]4OC(C)(C)O[C@@H]4CO)OC(C)(C)OC3C2O1` (stereo not given in full): the TGI in experiment [9], in experiment [1], in [2], in experiment [3], in experiment [4] and in [5] was above 100 µM in each case. Besides, the TGI in experiment [6], in experiment [8] and in [10] was above 100 µM in each case.
With `Cc1cc2ncc3c(=O)n(NS(=O)(=O)c4ccc(N)cc4)ccc3n2n1`, the TGI in experiment [9], in [2], in experiment [3], in experiment [4], in [5] and in experiment [6] was above 100 µM each time. The TGI in [7], in experiment [8] and in experiment [10] was above 100 µM in each case.
As for `COc1ccc(Nc2nc3c([nH]2)c(=O)n(C)c(=O)n3C)cc1`, the TGI in experiment [9], in experiment [1], in experiment [3], in experiment [4], in [6] and in experiment [8] was above 10 µM each time.
Take `O=C(O)C(CS)N=c1c2ccccc2n(O)c2ccccc12` (stereo not given): the TGI in [2], in experiment [3], in experiment [4], in experiment [5], in experiment [6] and in [7] was above 100 µM in each case. Besides, the TGI in [8] and in experiment [10] was above 100 µM each time.
For `O=C(Cc1ccc([N+](=O)[O-])cc1)OCC#CCOC(=O)Cc1ccc([N+](=O)[O-])cc1`, the TGI in [1], in experiment [2], in [3], in [4], in experiment [5] and in [7] was above 10 µM throughout. The TGI in experiment [8] and in experiment [10] was above 10 µM throughout.
`O=C1NC2OC(CO)C(O)C(O1)C2O` (stereo not given): the TGI in experiment [1], in [2], in experiment [3], in experiment [4], in experiment [5] and in experiment [6] was above 100 µM each time. Also, the TGI in experiment [7], in experiment [8] and in [10] was above 100 µM throughout.
On to `O=c1oc2cc(O)ccc2c(O)c1C(c1ccc(C(c2c(O)c3ccc(O)cc3oc2=O)c2c(O)c3ccc(O)cc3oc2=O)cc1)c1c(O)c2ccc(O)cc2oc1=O`, for which the TGI in experiment [9], in experiment [1], in experiment [3], in [4], in [5] and in [6] was above 100 µM each time. Moreover, the TGI in experiment [8] and in [10] was above 100 µM throughout.
`CN(C)CCn1c(=O)c2ccc(NCCCN(C)CCCNc3ccc4c(=O)n(CCN(C)C)c(=O)n5c6ccc([N+](=O)[O-])cc6c(=O)c3c45)c3c(=O)c4cc([N+](=O)[O-])ccc4n(c1=O)c23`: the TGI in experiment [9] worked out at 0.39 µM; in [2], 0.193 µM; in experiment [4] it was 2.13 µM; in experiment [5], 0.12 µM; in experiment [6], 0.204 µM; in experiment [7], 0.134 µM. Further, the values for the TGI in experiment [8] and in experiment [10] were 0.311 µM and 0.705 µM, respectively.
In the case of `NC1CNC(=O)c2c(Cl)sc(Cl)c21` (stereo not given), the TGI in experiment [9], in [1], in experiment [2], in experiment [3], in [4] and in experiment [5] was above 100 µM throughout. Also, the TGI in experiment [6] and in experiment [10] was above 100 µM in each case.
For `CC1CC(=O)Nc2nc3ccccc3n21` (stereo not given), the TGI in experiment [1], in experiment [2], in [3], in [4], in experiment [5] and in experiment [6] was above 100 µM in each case. Also, the TGI in experiment [7], in experiment [8] and in experiment [10] was above 100 µM in each case.
As for `Nc1ccc2[nH]c(-c3cccc(Cl)c3)cc(=O)c2c1`, the TGI in [2] was above 100 µM; in [3], above 100 µM; in experiment [4], above 100 µM; in [5], above 100 µM; in [6], above 100 µM; in [7], 6.87 µM. Further, in [8], the TGI is above 100 µM.
As to `COc1ccc(-c2c(C#N)c(N)nc3c2CCS(=O)(=O)c2ccccc2-3)cc1`, the TGI in experiment [9], in experiment [2], in experiment [3], in experiment [4], in experiment [5] and in experiment [6] was above 100 µM in each case. Besides, the TGI in experiment [7], in experiment [8] and in experiment [10] was above 100 µM throughout.
On to `CC(C)(C)C1CCC2(CC1)c1[nH]c3ccccc3c1C1(CCC(C(C)(C)C)CC1)c1[nH]c3ccccc3c12` (stereo not given), for which the TGI in experiment [1], in experiment [2], in experiment [3], in experiment [4], in [5] and in experiment [6] was above 100 µM each time. Besides, the TGI in experiment [7], in [8] and in [10] was above 100 µM each time.
For `COC(=O)C1CC2(c3ccccc3)C(=O)c3ccccc3N2O1` (stereo not given), the TGI in experiment [2] was above 100 µM; in experiment [3] it was above 100 µM; in experiment [4], above 100 µM; in experiment [5], above 100 µM; in experiment [6], above 100 µM; in experiment [7], 28.8 µM. Further, the concentration for total growth inhibition (TGI) in experiment [8] is above 100 µM.
